# Test results published in paper PMC8964499, “An Efficient Approach for the Design and Synthesis of Antimicrobial Peptide-Peptide Nucleic Acid Conjugates” (Frontiers in Chemistry, 2022).
# “And” between values parts separate entries of the source, which are not always exact repeats. Equal values may be shown once. Non-standard residues stand in square brackets, D forms with d. Residues, ends and D or L forms follow the SMILES beside them. *: point of attachment. X1 = N#Cc1cc(C(=O)*)ccn1; AEEA = NCCOCCOCC(=O)O; Ahx = NCCCCCC(=O)O
# Legend:
# A. baumannii 5075R = details: polymyxin-resistant isolate; disc diffusion (EUCAST), 40 μM per disk, inoculum McFarland 0.5 (~10^8 CFU/ml), 18 h at 37°C; volume per disk corrected by Mw equivalent to 40 ug of LASP-072
# Method: (§1) According to the EUCAST guidelines ([Eucast, E.C.O.a.S.T., 2021]), the inoculum was standardized in sterile saline to the density of a McFarland 0.50 ± 0.02 standard, corresponding to ∼10^8 CFU/ml of each isolate. The freshly prepared bacterial suspension was evenly inoculated onto agar plates and disks containing 40 μM of peptide-PNA conjugates were applied within 15 min. The diameter of inhibition zones was measured after incubation for 18 h at 37°C. Polymyxin B (40 μM/disk) was employed as the control.
# (§2) The selected peptide sequences are known for their antimicrobial activity ([Le et al., 2017]). Therefore, we evaluated the antimicrobial activity of synthesized peptide-PNA conjugates using the Disc Diffusion Assay (DDA) against a panel of MDR Gram-negative bacteria consisting of P. aeruginosa, A. baumannii, K. pneumoniae, E. coli, including the isolates highly polymyxin-resistant A. baumannii 5075R, and A. baumannii 5075D (Figure 4 and Supplementary Table S1). […] During the synthesis of the next set of peptide-PNA conjugates, we switched the direction of the conjugation handles to investigate the impact on the efficiency of conjugation. […]
# Figure S12: The inhibition zone (mm) of all peptides, PNA and peptide-PNA conjugates
# against A. baumannii 5075R at a concentration of 40 μM.
# A. baumannii 5075D = type: cell-based, Acinetobacter baumannii; details: polymyxin-dependent resistant isolate; disc diffusion (EUCAST), 40 μM per disk, inoculum McFarland 0.5 (~10^8 CFU/ml), 18 h at 37°C; volume per disk corrected by Mw equivalent to 40 ug of LASP-072
# Method: as §1
# (§3) The selected peptide sequences are known for their antimicrobial activity ([Le et al., 2017]). Therefore, we evaluated the antimicrobial activity of synthesized peptide-PNA conjugates using the Disc Diffusion Assay (DDA) against a panel of MDR Gram-negative bacteria consisting of P. aeruginosa, A. baumannii, K. pneumoniae, E. coli, including the isolates highly polymyxin-resistant A. baumannii 5075R, and A. baumannii 5075D (Figure 4 and Supplementary Table S1). […] Therefore, we further synthesized 10-mer PNAs targeting four bacterial essential genes anti-rpoA LASP-095 ([Abushahba et al., 2016]), anti-murA LASP-096 ([Goh et al., 2009]; [Mondhe et al., 2014]), anti-acpP LASP-097 ([Hansen et al., 2016]), and anti-rpoD LASP-119 ([Bai et al., 2012]; [Alajlouni and Seleem, 2013]). During the synthesis of the next set of peptide-PNA conjugates, we switched the direction of the conjugation handles to investigate the impact on the efficiency of conjugation. Here, PNAs were synthesized with an N-terminal CINA moiety (LASP-095, 096, 097 and 119, Table 1) and a polymyxin analogue (LASP-072, Table 1) was synthesized containing an N-terminal cysteine residue (Supplementary Figure S3).
# Table S1: Inhibition zone (mm) for peptide, PNA, and peptide-PNA conjugates
# Zone of inhibition diameter (mm)
# Mw equivalent Pa Ab Kp Ab Ab
# A. baumannii 5075 = details: 40 μM per disk; for Zone of inhibition diameter, Ab 5075: disc diffusion (EUCAST), inoculum McFarland 0.5 (~10^8 CFU/ml), 18 h at 37°C, volume per disk corrected by Mw equivalent to 40 ug of LASP-072
# Method: as §1, §2
# Figure S11: The inhibition zone (mm) of all peptides, PNA and peptide-PNA conjugates
# against A. baumannii 5075 at a concentration of 40 μM. […]
# P. aeruginosa ATCC 27853 = details: disc diffusion (EUCAST), 40 μM per disk, inoculum McFarland 0.5 (~10^8 CFU/ml), 18 h at 37°C; volume per disk corrected by Mw equivalent to 40 ug of LASP-072
# Method: as §1
# (§4) The selected peptide sequences are known for their antimicrobial activity ([Le et al., 2017]). Therefore, we evaluated the antimicrobial activity of synthesized peptide-PNA conjugates using the Disc Diffusion Assay (DDA) against a panel of MDR Gram-negative bacteria consisting of P. aeruginosa, A. baumannii, K. pneumoniae, E. coli, including the isolates highly polymyxin-resistant A. baumannii 5075R, and A. baumannii 5075D (Figure 4 and Supplementary Table S1). […] During the synthesis of the next set of peptide-PNA conjugates, we switched the direction of the conjugation handles to investigate the impact on the efficiency of conjugation.
# Figure S7: The inhibition zone (mm) of all peptides, PNA and peptide-PNA conjugates
# against P. aeruginosa ATCC 27853 at a concentration of 40 μM. […]
# [1] = test system: Klebsiella pneumoniae ATCC 700721; details: disc diffusion (EUCAST), 40 μM per disk, inoculum McFarland 0.5 (~10^8 CFU/ml), 18 h at 37°C; volume per disk corrected by Mw equivalent to 40 ug of LASP-072
# Method: as §1, §2
# Figure S9: The inhibition zone (mm) of all peptides, PNA and peptide-PNA conjugates
# against Klebsiella pneumoniae ATCC 700721 at a concentration of 40 μM.
# E. coli DH5α = details: disc diffusion (EUCAST), 40 μM per disk, inoculum McFarland 0.5 (~10^8 CFU/ml), 18 h at 37°C; volume per disk corrected by Mw equivalent to 40 ug of LASP-072
# Method: as §1, §4
# Figure S10: The inhibition zone (mm) of all peptides, PNA and peptide-PNA conjugates
# against E. coli DH5α at a concentration of 40 μM. […]
# A. baumannii ATCC 17978 = details: disc diffusion (EUCAST), 40 μM per disk, inoculum McFarland 0.5 (~10^8 CFU/ml), 18 h at 37°C; volume per disk corrected by Mw equivalent to 40 ug of LASP-072
# Method: as §1, §2
# Figure S8: The inhibition zone (mm) of all peptides, PNA and peptide-PNA conjugates
# against A. baumannii ATCC 17978 at a concentration of 40 μM. […]
# [2] = test system: panel of MDR Gram-negative bacteria consisting of P. aeruginosa, A. baumannii, K. pneumoniae, E. coli; experiment: Disc diffusion assay, statements for the whole panel; type: cell-based; details: 40 μM per disk, 18 h at 37°C, statement of the text for the whole panel
# Method: as §1, §3
Molecule,"Zone of inhibition diameter, Ab 5075 R (A. baumannii 5075R) [mm]","Zone of inhibition diameter, Ab 5075 D (A. baumannii 5075D)","Zone of inhibition diameter, Ab 5075 (A. baumannii 5075)","Zone of inhibition diameter, Pa ATCC 27853 (P. aeruginosa ATCC 27853) [mm]","Zone of inhibition diameter, Kp ATCC 700721 [1] [mm]","Zone of inhibition diameter, E. coli DH5α (E. coli DH5α) [mm]","Zone of inhibition diameter, Ab ATCC 17978 (A. baumannii ATCC 17978) [mm]","Bacterial growth in the presence of the conjugate (polymyxin-dependent phenotype) (A. baumannii 5075; disc diffusion, result in words)",Diameter of inhibition zones over the panel of bacteria [2]
N#Cc1cc(C(=O)NCCCC[C@H](NC(=O)COCCOCCNC(=O)[C@H](CCCNC(=N)N)NC(=O)CCCCCNC(=O)[C@H](CCCNC(=N)N)NC(=O)[C@H](CCCNC(=N)N)NC(=O)CCCCCNC(=O)[C@H](CCCNC(=N)N)NC(=O)[C@H](CCCNC(=N)N)NC(=O)CCCCCNC(=O)[C@H](CCCNC(=N)N)NC(=O)[C@H](CCCNC(=N)N)NC(=O)CCCCCNC(=O)[C@@H](N)CCCNC(=N)N)C(N)=O)ccn1 [LASP-054] (H-R[Ahx]RR[Ahx]RR[Ahx]RR[Ahx]R[AEEA]K(X1)-NH2),8,9 mm,8 mm,0,8,9,9,,
CINA-PEG-Gly-Lys-Pro-Arg-Pro-Tyr-Ser-Pro-Arg-Pro-Thr-Ser-His-Pro-Arg-Pro-Ile-Arg-Arg-NH2 [LASP-077],0,0 mm,0 mm,0,0,0,0,,
CINA-PEG-Gly-Lys-Pro-Arg-Pro-Tyr-Ser-Pro-Arg-Pro-Thr-Ser-His-Pro-Arg-Pro-Ile-Arg-Arg-NH2 [LASP-084],0,7 mm and 8 mm,,0,0,8,0,greater bacterial growth,
CINA-PEG-OctGly-Dab-Thr-Dab-Dab ^b -Dab-D-Phe-Leu-Dab-Dab-Thr ^b (lariat or depsi) [LASP-026],11,9 mm,13 mm,14,13,15,13,,
CINA-PEG-Val-Cys ^c -Lys-Arg-trp-Lys-Lys-Trp-Lys-Arg-Lys-Trp-Lys-Lys-Trp-Cys ^c -Val-NH2 (sidechain bridge or staple) [LASP-086],0,0 mm,0 mm,0,0,0,0,,No zone of bacterial growth inhibition
CINA-PEG-Val-Cys ^d -Lys-Arg-trp-Lys-Lys-Trp-Lys-Arg-Lys-Trp-Lys-Lys-Trp-Cys ^d -Val-NH2 (disulfide) [LASP-088],0,,7 mm and 8 mm,0,0,8,0,,
Cys-PEG-OctGly-Dab-Thr-Dab-Dab ^b -Dab-D-Phe-Leu-Dab-Dab-Thr ^b (lariat or depsi) [LASP-130],7,0 mm,10 mm,9,9,12,9,,11–14 mm
H-Arg-Acp-Arg-Arg-Acp-Arg-Arg-Acp-Arg-Arg-Acp-Arg-PEG-Lys (CINA)-NH2 [LASP-058],0,0 mm,0 mm,0,0,0,0,,No zone of bacterial growth inhibition
